# Patent publication US20060073154A1 (priority 2001, published 2006)
# B1: Fetuin: sialylated glycoprotein containing both α2-3 and α2-6 sialic acid linkages (protein, UniProt P12763 19-359, looked up)
# Alpha-2-HS-glycoprotein: IPLDPVAGYKEPACDDPDTEQAALAAVDYINKHLPRGYKHTLNQIDSVKVWPRRPTGEVYDIEIDTLETTCHVLDPTPLANCSVRQQTQHAVEGDCDIHVLKQDGQFSVLFTKCDSSPDSAEDVRKLCPDCPLLAPLNDSRVVHAVEVALATFNAESNGSYLQLVEISRAQFVPLPVSVSVEFAVAATDCIAKEVVDPTKCNLLAEKQYGFCKGSVIQKALGGEDVRVTCTLFQTQPVIPQPQPDGAEAEAPSAVPDAAGPTPSAAGPPVASVVVGPSVVAVPLPLHRAHYDLRHTFSGVASVESSSGEAFHVGKTPIVGQPSIPGGPVRLCPGRIRYFKI
# Columns and labels:
# [1] = system: streptococcal strain D471 adherence to Detroit 562 pharyngeal cells; assay type: cell-based, S. pyogenes
# [2] = system: strain JRS75 adherence to Detroit 562 pharyngeal cells; assay: Pharyngeal cell adherence assay with isogenic M-negative mutant; assay type: cell-based, S. pyogenes; conditions: bacteria preincubated with sialic acid
# Experimental: Pharyngeal cell adherence and invasion assay. Streptococcal adherence to and invasion of the human pharyngeal cell line, Detroit 562, was assayed by modification of a procedure described previously (Talbot, U. M., et al., Infect. Immun. 64:3772-3777, 1996). Overnight cultures of streptococci were pelleted by centrifugation and washed twice in sterile PBS. The cultures were resuspended in MEM and diluted to a final concentration of 5×10^7 CFU/ml, and 1 ml aliquots were inoculated into each well containing washed Detroit cell monolayers. At least 3 wells were used for each bacterial strain or culture condition. Following a 3 h incubation period with the bacteria at 37° C., the monolayers were washed three times in PBS.
# For the bacterial invasion assay, 1 ml of MEM supplemented with penicillin (10 μg/ml) and gentamicin (200 μg/ml) was added to each well (to kill extracellular bacteria) and incubated for 1 h at 37° C. […] The total number of adherent streptococci was calculated as the difference between the total number of adherent and invasive bacteria and the number of invasive bacteria alone.
# Effect of monosaccharides on streptococcal adherence to pharyngeal cells. The effect of various monosaccharides on streptococcal adherence to pharyngeal cell monolayers was assessed in inhibition assays. […]
molecule,measurement,setting,value
"CC(=O)N[C@H]1[C@H]([C@H](O)[C@H](O)CO)O[C@@](O[C@H]2[C@@H](O)[C@@H](CO)O[C@@H](O[C@H]3[C@H](O)[C@@H](O)C(O)O[C@@H]3CO)[C@@H]2O)(C(=O)O)C[C@@H]1O (stereo partly drawn) [3′SL, NeuAcα2-3Galβ1-4Glc]",effect on adherence of strain D471 to cultured pharyngeal cells,[1],no significant effect
"CC(=O)NC1C(O)CC(OCC2OC(OC3C(CO)OC(O)C(O)C3O)C(O)C(O)C2O)(C(=O)O)OC1C(O)C(O)CO (stereo not drawn) [6′SL, NeuACα2-6Galβ1-4Glc]",reduced binding of strain D471 to pharyngeal cells,[1],approximately 85%
"CC(=O)N[C@H]1[C@H]([C@H](O)[C@H](O)CO)OC(O)(C(=O)O)C[C@@H]1O (stereo partly drawn) [sialic acid, N-acetylneuraminic acid]",effect on adherence of JRS75 (M-negative mutant) to pharyngeal cells,[2],not affected
same,effect on adherence of strain D471 to pharyngeal cells,[1],significantly decreased
transferrin: sialylated glycoprotein whose oligosaccharides terminate only in α2-6 linked sialic acid,reduced adherence of strain D471 to cultured pharyngeal cells,[1],approximately 90%
B1,decrease of adherence of strain D471 to pharyngeal cells,[1],approximately 30%
